We go through 81 compounds from the supplement of paper PMC3493320.

Molecules are shown by their SMILES.

For orientation: IC50 means the point on the concentration scale where inhibition reaches its midpoint. A lower IC50 goes with greater potency.

The test system of the assay is NCI-H295R. In words: IC50 (antiproliferative, ATP content). To be noted: 48 h. In a few lines:
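Following overnight culture of adrenocortical carcinoma cells (1500 per well) in 1536-well plates with serum-free ITS-supplemented DMEM, library compounds were pin-transferred at 8 final concentrations from 0.6 nM to 46 µM. Incubation lasted 48 h at 37 °C, 5% CO2, and the CellTiter-Glo signal was read after 20 min at room temperature. Data were fitted with a four-parameter logistic model. Each IC50 came from that fit after normalisation to vehicle and positive-control wells, and compounds without a concentration response were reported as above the top dose.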
`CCC(=O)O[C@@](Cc1ccccc1)(c1ccccc1)[C@@H](C)CN(C)C.O=S(=O)(O)c1ccc2ccccc2c1` showed a half-maximal inhibitory concentration (IC50) above 46 µM. For `O=C(CCCN1CCC2(CC1)C(=O)NCN2c1ccccc1)c1ccc(F)cc1` the value was above 46 µM. For `Nc1nc(N)c(-c2ccccc2)s1`, the IC50 was above 46 µM. `O=C(CCCCCCCCCCCCC1CCCC1)Nc1ccc(S(=O)(=O)c2ccc(NC(=O)CCCCCCCCCCCCC3CCCC3)cc2)cc1` displayed an IC50 above 46 µM. To `NS(=O)(=O)c1cc2c(cc1Cl)N=C(CSCc1ccccc1)NS2(=O)=O` belongs above 46 µM. In turn, `CCCc1nc(C)c2c(=O)nc(-c3cc(S(=O)(=O)N4CCN(CC)CC4)ccc3OCC)[nH]n12.O=C(O)CC(O)(CC(=O)O)C(=O)O` gave an IC50 above 46 µM. Consider `COc1ccc(-c2cc(=O)c3c(O)cc(O[C@@H]4O[C@H](CO[C@@H]5O[C@@H](C)[C@H](O)[C@@H](O)[C@H]5O)[C@@H](O)[C@H](O)[C@H]4O)cc3o2)cc1O`, for which the IC50 was above 46 µM. To `Nc1ccc(S(=O)(=O)Nc2nccs2)cc1` belongs above 46 µM; to `O=[C@@](C)[C@@H]3[C@]2(C)[C@](CC3)([H])[C@@]1([H])[C@@](CC2)([H])[C@](CC[C@](O)(C)C4)(C)[C@@]4([H])CC1`, above 46 µM.

`CCCNC(C)C(=O)Nc1ccccc1C.Cl` (stereo unspecified) returned an IC50 above 46 µM. For `C1CCC(NC2CCCCC2)CC1` the value was above 46 µM.

On to `CCCCC(CC)COC(=O)C=Cc1ccc(OC)cc1` (stereo unspecified), for which the IC50 was above 46 µM. Turning to `COC(=O)c1ccc(O)cc1`, the IC50 is above 46 µM. `F[C@]1([C@](C[C@@H]3C)([H])[C@@]4([H])[C@]([C@@](CC4)(O)[C@@](C)=O)(C)C[C@@H]1O)[C@](C=C2)(C)C3=CC2=O` yielded an IC50 above 46 µM. Compound `CC=Cc1ccc(OC)cc1` came in with an IC50 above 46 µM. `CN(C)[C@@H]1C(O)=C(C(N)=O)C(=O)[C@@]2(O)C(O)=C3C(=O)c4c(O)cccc4[C@@](C)(O)[C@H]3[C@H](O)[C@@H]12.Cl` gave an IC50 above 46 µM.

For the compound `O=c1[nH]c(=O)n(C2CCCO2)cc1F` (stereo unspecified), the IC50 was above 46 µM. In turn, `CC(=O)CC(c1ccccc1)c1c([O-])c2ccccc2oc1=O.[K+]` (stereo unspecified) gave an IC50 above 46 µM. Compound `N=C(N)c1ccc(OCCCCCOc2ccc(C(=N)N)cc2)cc1.O=S(=O)(O)CCO.O=S(=O)(O)CCO` registered an IC50 above 46 µM.

On to `O=P(O)(O)C(O)(Cn1ccnc1)P(=O)(O)O`, for which the IC50 is above 46 µM. As to `CC(C)CC(=O)N[C@H](C(=O)N[C@H](C(=O)N[C@@H](CC(C)C)[C@@H](O)CC(=O)N[C@@H](C)C(=O)N[C@@H](CC(C)C)[C@@H](O)CC(=O)O)C(C)C)C(C)C`, the IC50 is above 46 µM. Turning to `NC/C=C/C(=O)O`, the IC50 is above 46 µM. For the compound `CS(=O)(=O)Nc1cc2\C=C(/Nc2cc1)C(=O)N3CCN(CC3)c4ncccc4NC(C)C`, the IC50 was above 46 µM.

Regarding `COCC(=O)Nc1c(I)c(C(=O)NCC(O)CO)c(I)c(C(=O)N(C)CC(O)CO)c1I` (stereo unspecified), the IC50 was above 46 µM. For `COc1cc(N)c(Cl)cc1C(=O)NC1CCN(CCCOc2ccc(F)cc2)CC1OC` (stereo unspecified) the value was above 46 µM.

For the compound `CC(C)CC(N(C)C)C1(c2ccc(Cl)cc2)CCC1.Cl` (stereo unspecified), the IC50 was above 46 µM. The compound `O.O.O.O.O.O.O.O=S(=O)([O-])[O-].[Co+2]` displayed an IC50 above 46 µM. To `CC(CNC1CCCCC1)OC(=O)c1ccccc1.Cl` (stereo unspecified) belongs above 46 µM; to `Cc1cn([C@H]2C[C@H](F)[C@@H](CO)O2)c(=O)[nH]c1=O`, above 46 µM.

As for `COC(=O)[C@H]1[C@H]2C[C@H]3c4[nH]c5ccccc5c4CCN3C[C@H]2CC[C@@H]1O`, the IC50 is above 46 µM. Take `O=C([O-])c1nc(O)nc(O)n1.[K+]`: the IC50 is above 46 µM. `CCN(CC)CC#CCOC(=O)C(O)(c1ccccc1)C1CCCCC1.Cl` (stereo unspecified) registered an IC50 above 46 µM. `C[C@H]1O[C@H](OC[C@@H]2O[C@H](Oc3c(-c4ccc(OCCO)c(OCCO)c4)oc4cc(OCCO)cc(O)c4c3=O)[C@@H](O)[C@H](O)[C@H]2O)[C@@H](O)[C@@H](O)[C@@H]1O` gave an IC50 above 46 µM.

`CCC[C@@H]1C[C@@H](C(=O)N[C@@H]([C@H]2O[C@H](SC)[C@H](O)[C@@H](O)[C@H]2O)[C@H](C)Cl)N(C)C1.Cl` returned an IC50 above 46 µM.

`Cn1sc(Cl)cc1=O` showed an IC50 above 46 µM. `O=[C@@](OC)[C@H](C2=CC=CC=C2Cl)N1CC(C=CS3)=C3CC1.O=S(O)(O)=O` displayed an IC50 above 46 µM. `O=[C@@](OCC)[C@@H](N[C@@H](C)C(N2C(N(C)C[C@H]2[C@](O)=O)=O)=O)CCC1=CC=CC=C1.Cl`: the IC50 is above 46 µM. The compound `CC(=O)Oc1cc(C(C)C)c(OCCN(C)C)cc1C.Cl` returned an IC50 above 46 µM.

Compound `O=c1[nH]c(=O)c2ccccc2o1` gave an IC50 above 46 µM. Compound `COc1cc2[nH]c(=O)[nH]c(=O)c2cc1OC` came in with an IC50 above 46 µM. In the case of `Cc1cc(-c2ccccc2)nnc1NCCN1CCOCC1.Cl.Cl`, the IC50 was above 46 µM.

For `CN[C@@H]1[C@@H](O)[C@@H](O[C@@H]2[C@@H](O)[C@H](O[C@H]3O[C@H](CN)[C@@H](O)[C@H](O)[C@H]3O)[C@@H](N)C[C@H]2NC(=O)C(O)CN)OC[C@]1(C)O.O=S(=O)(O)O` (stereo partly specified), the IC50 was above 46 µM. `O=[N+]([O-])C(Br)(CO)CO` had an IC50 above 46 µM. `C=C(C)[C@@H]1[C@H]2OC(=O)[C@@H]1[C@]1(O)C[C@H]3O[C@]34C(=O)O[C@H]2[C@]14C.CC(C)(O)[C@@H]1[C@H]2OC(=O)[C@@H]1[C@]1(O)C[C@H]3O[C@]34C(=O)O[C@H]2[C@]14C` had an IC50 above 46 µM. In the case of `COP(=O)(OC)C(O)C(Cl)(Cl)Cl` (stereo unspecified), the IC50 was above 46 µM. Take `CCCCCCCCCCCCCCCC[N+](C)(C)CCN(Cc1ccc(OC)cc1)c1ncccn1.[Br-]`: the IC50 was above 46 µM. Take `COc1ccc(CCN(C)CCCC(C#N)(c2ccc(OC)c(OC)c2)C(C)C)cc1OC` (stereo unspecified): the IC50 is above 46 µM.

Take `CNCCCCOc1ccccc1Cc1ccccc1`: the IC50 is above 46 µM.

Compound `C[C@]12CCC(=O)C[C@@H]1CC[C@@H]1[C@@H]2CC[C@]2(C)C=CC[C@@H]12` returned an IC50 above 46 µM.

Regarding `OCC(=O)[C@@]3(O)CC[C@H]2[C@@H]4CC\C1=C\C(=O)CC[C@]1(C)[C@H]4C(=O)C[C@@]23C`, the IC50 was above 46 µM. Compound `O=C(O)c1ccccc1O.Oc1cccc2cccnc12` displayed an IC50 above 46 µM.

For `Cc1ccc(C(C)(C)c2ccc(C)cc2)cc1`, the IC50 is above 46 µM. For `CN1CCC[C@@H]1CCO[C@](C)(c1ccccc1)c1ccc(Cl)cc1.O=C(O)/C=C/C(=O)O`, the IC50 was above 46 µM.

Turning to `COc1ccc(S(=O)(=O)Nc2nnc(CC(C)C)s2)cc1`, the half-maximal inhibitory concentration (IC50) was above 46 µM. Compound `NC(CO)(CO)CO` registered an IC50 above 46 µM.

Consider `O=C([O-])CCC1=C(C)C/3=N\C1=C/C2=C(CCC([O-])=O)C(C)=C(/C=C(C(C=C)=C4C)\N=C4/C=C(C(C=C)=C5C)\N\C5=C3)N2.[Na+].[Na+]`, for which the IC50 is above 46 µM. In the case of `OC(c1ccccc1)(c1ccccc1)C1CN2CCC1CC2` (stereo unspecified), the IC50 is above 46 µM.

Compound `NCC[C@H](O)C(=O)N[C@@H]1C[C@H](N)[C@@H](O[C@H]2O[C@H](CN)[C@@H](O)[C@H](O)[C@H]2O)[C@H](O)[C@H]1O[C@H]1O[C@H](CO)[C@@H](O)[C@H](N)[C@H]1O` had an IC50 above 46 µM. The compound `N/1C(N(\C=C\1)C)=S` gave an IC50 above 46 µM.

As for `O=C(NCC1CCCCN1)c1cc(OCC(F)(F)F)ccc1OCC(F)(F)F` (stereo unspecified), the IC50 is above 46 µM. `O=C([O-])Cc1ccccc1Nc1c(Cl)cccc1Cl.[Na+]` had an IC50 above 46 µM.

In the case of `F[C@@]([C@](C=C4)(C)C3=CC4=O)2[C@@H](O)C[C@]([C@](C5)([H])[C@@]([H])2CC3)(C)[C@@]1([C@](CO)=O)[C@@H]5OC(C)(C)O1`, the IC50 was above 46 µM. Regarding `CC[C@H](NC(C)C)[C@H](O)c1ccc(O)c2[nH]c(=O)ccc12`, the IC50 is above 46 µM. To `Nc1ccccc1C(=O)O` belongs above 46 µM.

`CCCC(C)C1(CC)C(=O)N=C(O)NC1=O` (stereo unspecified) gave an IC50 above 46 µM. Compound `CCCCC[C@H](O)/C=C/[C@@H]1[C@H]2C/C(=C/CCCC(=O)[O-])O[C@H]2C[C@H]1O.[Na+]` gave an IC50 above 46 µM. `CCNCC(O)c1cccc(O)c1.Cl` (stereo unspecified) had an IC50 above 46 µM.

Compound `N=C(N)NN.N=C(N)NN.O=S(=O)(O)O` had an IC50 above 46 µM.

The compound `CN(C)CCOC(=O)C(c1ccccc1)C1(O)CCCC1.Cl` (stereo unspecified) had an IC50 above 46 µM. For `O=C1C(CCS(=O)c2ccccc2)C(=O)N(c2ccccc2)N1c1ccccc1` (stereo unspecified) the value was above 46 µM; for `CCCN1CCC[C@H](c2cccc(O)c2)C1.Cl`, above 46 µM; for `O=C1NC(=O)[C@H]2[C@@H]1[C@@H]1C=C[C@H]2C1`, above 46 µM. `O=C1CCC(=O)N1CO` showed an IC50 above 46 µM. The compound `Cc1ccc(S(=O)(=O)NC(=O)NC2CCCCCCC2)cc1` returned an IC50 above 46 µM. In the case of `O=C(O)c1nn(Cc2ccc(Cl)cc2Cl)c2ccccc12`, the IC50 was above 46 µM. `CC(=O)O[C@H]1CC[C@H]2[C@@H]3CCC4=CC(=O)CCC4=C3C=C[C@]12C` displayed an IC50 above 46 µM. To `O=c1[nH]cnc2nc[nH]c12` belongs above 46 µM; to `C#CCN(C)[C@H](C)Cc1ccccc1.Cl`, above 46 µM. To `O=C2O[C@H](C)C/C=C/C=C/C=C/C=C/[C@H](O[C@@H]3O[C@H](C)[C@@H](O)[C@H](N)[C@@H]3O)C[C@]([C@H]([C@@](O)=O)[C@@H](O)C4)([H])O[C@]4(O)C[C@@H](O)C[C@@]1([H])O[C@@]([H])1/C=C/2` belongs above 46 µM; to `O=C1c2c(O)cccc2[C@H]([C@@H]2O[C@H](CO)[C@@H](O)[C@H](O)[C@H]2O)c2cc(CO)cc(O)c21`, above 46 µM; to `O=C(OCCOCCO)c1ccccc1Nc1cccc(C(F)(F)F)c1`, above 46 µM.
